Laboratory results as given in patent publication US20230346884A1, “Molecular Targets for Modulation of Dissociative and Associative States” (The Board of Trustees of the Leland Stanford Junior …, priority 2020, published 2023).
Entries after “also recorded” stand apart in the source; their conditions may differ.

Assays:
[1] = system: retrosplenial cortex (RSP); assay: Widefield (pan-cortical) imaging of cortical activity in GCaMP6s mice; details: widefield imaging; i.p.; ketamine 50 mg/kg subanesthetic dose; other drugs at doses of b234
Description: (2 mg/kg), lidocaine (topical), LSD ((+)-Lysergic acid diethylamide (+)-tartrate (2:1), 0.3 mg/kg), and diazepam (2 mg/kg). […] For anti-depressant effects, human doses are typically 0.3-1 mg/kg, and in mouse 3-10 mg/kg.
As described^8, mice were anesthetized with isoflurane, the scalp was removed, the skull cleaned and dried, and a custom head-plate was cemented to contacts over the cerebellum and in front of the olfactory bulb. The skull was then covered in a thin layer of cyanoacrylate glue (Apollo 2000, Cyberbond), clear dental acrylic (Ortho-Jet, Lang Dental), and clear nail polish (Electron Microscopy Services). […] (0.1 mg/kg) was injected subcutaneously for pain management. […] Imaging was performed on a custom-built fluorescence microscope designed for high light collection efficiency and large field of view. […] Alternating 410 nm and 488 nm illumination for non-Ca^2+ dependent artifact removal was controlled using a microcontroller (Arduino) slaved to the frame output trigger of the camera.
Analysis was performed using custom MATLAB (MathWorks) scripts. Widefield imaging videos were registered to a 2D top-projection atlas generated from the annotated Allen Brain Atlas volume, version CCFv2, in MATLAB (MathWorks), using an affine transformation computed from four manually selected control points. Each video was DF/F normalized, using the median for each pixel over the entire time series as F. The 410 nm channel was then temporally smoothed using a moving average (width=400 ms). The smoothed 410 nm DF/F signal for each pixel was regressed onto the 488 nm DF/F signal for the corresponding pixel, and the regression coefficients were used to scale the 410 nm channel to the 488 nm channel. This scaled 410 nm DF/F signal was then subtracted from the 488 nm DF/F signal to produce a normalized signal for each pixel. For quantification, activity traces were extracted from points centered in five cortical regions (visual, somatosensory, parietal, motor, retrosplenial) on the left hemisphere of the brain. The video data was Gaussian smoothed spatially (radius=2 pixels). Similarly, for fiber photometry recordings, the 410 nm signal was regressed onto the 488 nm signal, the 410 nm signal was scaled by the regression coefficients, and then subtracted from the 488 nm signal.
Each trace (corresponding to either a fiber photometry signal, a cellular two-photon signal, a widefield regional centroid, a widefield pixel, an sEEG trace, or a smoothed spike rate Neuropixels trace) was z-scored, and the power spectral density (PSD) was then estimated using Welch's method (pwelch( ) in Matlab), with a window size of 10*fs (15*fs for human sEEG) where fs is the sampling rate of the signal. The average band power within a specified band (i.e. 1-3 Hz) was then computed by integrating the PSD estimate (bandpower in Matlab). For displaying the traces of individual cells, traces were each zscored by subtracting the mean value of the trace (across the whole recorded time window) and dividing by the standard deviation of the trace. Unless otherwise indicated, the PSD was computed across the time window from minutes 10 to 11 post-injection.

mice [2] = assay: Open field test; format: in vivo, mouse; details: 5 min; vs saline; doses of b234
Excerpt: Open Field Test: Mice were placed in an evenly illuminated 50 cm×50 cm open field test box. Mouse position was captured using a webcam and Viewer software (Biobserve).

mice [3] = assay: Resident-intruder social interaction assay; format: in vivo, mouse; details: PCP 5 mg/kg
Description: Social Interaction Assay: Resident-intruder social interaction was recorded for two minutes. Interactions were defined as close physical proximity behaviors, including sniffing, touching, and following. […] Illumination began 30 seconds before the same-sex intruder mouse was introduced.

mice [4] = assay: Tail suspension test; format: in vivo, mouse; details: PCP 5 mg/kg
Description: Tail Suspension Test: Mouse activity was recorded using a 60 Hz web camera. Struggling activity was quantified for minutes 2-10. […] Illumination began 30 seconds before tails were secured with tape and suspended from the beam. Mice were excluded if they climbed on their own tails.

mice [5] = assay: Hot plate test; details: for Dissociation-like behavior: disconnection between sensory-detection and affective responses: other drug classes, doses of b234
Description: Hot Plate Test: Mice were placed on the hot plate (Bioseb), which was set to 55° C. and surrounded by a clear circular perimeter. Mouse activity was recorded using two cameras from different angles. The experiment ended when the mouse jumped to escape or 90 seconds had elapsed. Care was taken to clean and dry the hot plate apparatus between animals. For optogenetic experiments, mice were connected to patch cords and then returned to a holding cage. Illumination began 30 seconds before mice were placed on the hot plate.

Row | Molecule | Cortical activity pattern: 1-3 Hz oscillation localized to retrosplenial cortex (RSP) [1] | Open-field locomotion velocity (mice [2]) | Social behavior (mice [3]) | Longer-timescale escape behavior (mice [4]) | Dissociation-like behavior: disconnection between sensory-detection and affective responses (mice [5]) | Responsivity to salient stimuli (time-to-jump, rearing/socialization) (mice [5]; LSD 0.3 mg/kg)
1 | CC12CC3CC(C)(C1)CC(N)(C3)C2 [Memantine, memantine] | did not elicit oscillation |  |  |  |  | 
2 | CC(C)c1cccc(C(C)C)c1O [propofol] | elicited waves of cortical activity without RSP restriction |  |  |  |  | 
3 | C[C@]12N[C@H](Cc3ccccc31)c1ccccc12 [MK-801] | induced the RSP-localized oscillation |  |  |  |  | 
4 | c1ccc(C2(N3CCCCC3)CCCCC2)cc1 [PCP, phencyclidine] | induced the RSP-localized oscillation | locomotion velocity was unchanged | inhibited longer-timescale escape and social behaviors | inhibited longer-timescale escape and social behaviors | recapitulated ketamine's behavioral disconnection between sensory-detection and affective responses in the hot-plate test | 
5 | CN1C(=O)CN=C(c2ccccc2)c2cc(Cl)ccc21 [diazepam] | Neither the GABAergic sedative diazepam nor the centrally-acting opioid-analgesic buprenorphine elicited the rhythm | decreased velocity |  |  | did not recapitulate dissociative-like behavior | 
6 | Cc1cccc([C@H](C)c2cnc[nH]2)c1C [dexmedetomidine] | elicited waves of cortical activity without RSP restriction |  |  |  |  | 
7 | (+)-Lysergic acid diethylamide (+)-tartrate (2:1) [LSD] | did not elicit oscillation | reducing locomotion in the stimulus-poor open-field; also recorded: decreased velocity |  |  | disrupted neither sensory-detection nor affective responses | tended to increase responsivity to salient stimuli (decreased time-to-jump, increased rearing/socialization)
